Laboratory results published in patent US20080207665A1, “Alpha-(Aryl-or Heteroaryl-Methyl)-Beta-Piperidinopropanoic Acid Compounds as Orl-1-Receptor Antagonists” (Pfizer Inc., priority 2005, published 2008).

What was measured:
human ORL1 receptor = molecular target: T1, human ORL1 receptor (Homo sapiens, UniProt P41146); assay: ORL1-receptor binding assay ([3H]nociceptin, SPA); settings: human ORL1 receptor transfected HEK-293 cell membranes, 0.4 nM [3H]nociceptin
T1 construct: purchased PerkinElmer; host or cells: HEK-293
Description: The human ORL1 receptor transfected HEK-293 cell membranes (PerkinElmer) were incubated for 45 min at room temperature with 0.4 nM [^3H]nociceptin, 1.0 mg of wheat germ agglutinin(WGA)-coated SPA beads and various concentrations of test compounds in a final volume of 200 μL of 50 mM HEPES buffer pH 7.4 containing 10 mM MgCl2 and 1 mM EDTA. Non-specific binding (NSB) was determined by the addition of 1 μM unlabeled nociceptin. After the reaction, the assay plate was centrifuged at 1,000 rpm for 1 min and then the radioactivity was measured by WALLAC 1450 MicroBeta Trilux.
The compounds of the examples were tested in the ORL1 Receptor Binding assay.

HERG potassium channel = molecular target: T2, HERG potassium channel (Homo sapiens, UniProt Q12809); type: binding
T2 construct: expressed in transfected cells; host or cells: HEK-293
Description: Cell paste of HEK-293 cells expressing the HERG product was suspended in 10-fold volume of 50 mM Tris buffer adjusted at pH 7.5 at 25° C. with 2 M HCl containing 1 mM MgCl2, 10 mM KCl. The cells were homogenized using a Polytron homogenizer (at the maximum power for 20 seconds) and centrifuged at 48,000 g for 20 minutes at 4° C. The pellet was resuspended, homogenized and centrifuged once more in the same manner. The resultant supernatant was discarded and the final pellet was resuspended (10-fold volume of 50 mM Tris buffer) and homogenized at the maximum power for 20 seconds. The membrane homogenate was aliquoted and stored at −80° C. until use. An aliquot was used for protein concentration determination using a Protein Assay Rapid Kit and ARVO SX plate reader (Wallac). […] Saturation was determined by incubating 20 μl of [^3H]-dofetilide and 160 μl of membrane homogenates (20-30 μg protein per well) for 60 min at room temperature in the absence or presence of 10 μM dofetilide at final concentrations (20 μl) for total or nonspecific binding, respectively. […] Receptor-bound radioactivity was quantified by liquid scintillation counting using Packard LS counter.
For the competition assay, compounds were diluted in 96 well polypropylene plates as 4-point dilutions in semi-log format. […] Receptor-bound radioactivity was quantified by counting Wallac MicroBeta plate counter.

T1 sequence (P41146 whole entry): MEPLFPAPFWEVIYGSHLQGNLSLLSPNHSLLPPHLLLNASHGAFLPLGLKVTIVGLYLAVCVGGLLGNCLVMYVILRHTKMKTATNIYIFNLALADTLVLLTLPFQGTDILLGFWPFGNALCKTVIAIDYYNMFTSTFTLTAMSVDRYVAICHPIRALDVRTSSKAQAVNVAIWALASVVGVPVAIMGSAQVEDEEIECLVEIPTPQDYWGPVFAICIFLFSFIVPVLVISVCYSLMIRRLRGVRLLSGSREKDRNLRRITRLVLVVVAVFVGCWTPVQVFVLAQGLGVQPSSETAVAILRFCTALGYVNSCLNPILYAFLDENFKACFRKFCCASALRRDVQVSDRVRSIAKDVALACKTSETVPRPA
T2 sequence (Q12809 whole entry): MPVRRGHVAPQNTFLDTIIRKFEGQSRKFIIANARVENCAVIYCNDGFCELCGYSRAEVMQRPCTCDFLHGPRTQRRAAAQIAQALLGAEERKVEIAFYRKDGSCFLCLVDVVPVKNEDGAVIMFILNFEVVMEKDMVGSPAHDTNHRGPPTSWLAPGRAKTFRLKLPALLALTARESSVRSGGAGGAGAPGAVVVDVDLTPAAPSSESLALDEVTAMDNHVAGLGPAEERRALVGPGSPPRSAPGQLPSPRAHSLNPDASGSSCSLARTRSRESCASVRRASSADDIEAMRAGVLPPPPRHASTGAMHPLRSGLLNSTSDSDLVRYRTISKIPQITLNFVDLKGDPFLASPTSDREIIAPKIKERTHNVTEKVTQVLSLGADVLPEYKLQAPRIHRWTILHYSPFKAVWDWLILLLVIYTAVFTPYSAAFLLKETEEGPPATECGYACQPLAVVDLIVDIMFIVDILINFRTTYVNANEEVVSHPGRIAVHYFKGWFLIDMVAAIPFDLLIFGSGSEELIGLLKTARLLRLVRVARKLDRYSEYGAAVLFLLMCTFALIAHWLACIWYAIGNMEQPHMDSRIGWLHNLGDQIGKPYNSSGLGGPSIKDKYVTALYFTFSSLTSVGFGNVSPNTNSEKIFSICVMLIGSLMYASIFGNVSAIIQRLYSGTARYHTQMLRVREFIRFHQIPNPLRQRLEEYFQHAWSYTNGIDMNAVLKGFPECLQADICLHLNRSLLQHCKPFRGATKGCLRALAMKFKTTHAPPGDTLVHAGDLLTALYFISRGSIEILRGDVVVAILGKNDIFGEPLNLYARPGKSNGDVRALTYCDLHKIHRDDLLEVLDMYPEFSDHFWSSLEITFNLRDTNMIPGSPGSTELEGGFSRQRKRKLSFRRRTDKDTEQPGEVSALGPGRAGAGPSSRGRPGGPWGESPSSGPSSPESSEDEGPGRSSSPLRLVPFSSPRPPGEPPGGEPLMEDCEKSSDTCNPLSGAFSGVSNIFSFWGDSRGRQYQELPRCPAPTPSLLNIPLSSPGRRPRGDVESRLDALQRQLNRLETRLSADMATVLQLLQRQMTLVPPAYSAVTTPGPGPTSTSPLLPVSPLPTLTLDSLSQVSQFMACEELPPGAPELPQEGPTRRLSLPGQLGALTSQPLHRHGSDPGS

Compound | Ki (human ORL1 receptor) | activity in the dofetilide binding assay (HERG potassium channel) | predicted HERG potassium channel inhibitory activity (HERG potassium channel)
O=C(O)C(Cc1ccccc1Cl)CN1C2CCC1CC1(C2)OCc2ccc(F)cc21 (stereo not drawn) [Example 8, 2-(2-Chlorobenzyl)-3-(6′-fluoro-3′H,8H-spiro[8-azabicyclo[3.2.1]octane-3,1′-[2]benzofuran]-8-yl)propanoic acid] | 3.4 nM | – | –
O=C(O)C(Cc1cc(O)ccc1Cl)CN1C2CCC1CC1(C2)OCCc2cc(F)ccc21 (stereo not drawn) [Example 9, 2-(2-Chloro-5-hydroxybenzyl)-3-(6′-fluoro-3′,4′-dihydro-8H-spiro[8-azabicyclo[3.2.1]octane-3,1′-isochromen]-8-yl)propanoic acid] | 1.2 nM | – | –
O=C(O)C(Cc1cc(O)ccc1Cl)CN1C2CCC1CC1(C2)OCc2ccc(F)cc21 (stereo not drawn) [Example 10, 2-(2-Chloro-5-hydroxybenzyl)-3-(6′-fluoro-3′H,8H-spiro[8-azabicyclo[3.2.1]octane-3,1′-[2]benzofuran]-8-yl)propanoic acid] | 3.3 nM | – | –
CN1C(=O)C(CN2CCC3(CCc4ccccc43)CC2)Cc2ccccc21 (stereo not drawn) [Compound (i)] | – | potent activity | high
O=C(O)C(Cc1ccccc1Cl)CN1C2CCC1CC1(C2)OCCc2cc(F)ccc21 (stereo not drawn) [Example 7, 2-(2-Chlorobenzyl)-3-(6′-fluoro-3′,4′-dihydro-8H-spiro[8-azabicyclo[3.2.1]octane-3,1′-isochromen]-8-yl)propanoic acid] | 1.3 nM | – | –
